Experiments:
neural stem cells = test: Cytotoxicity of the method of introduction into cells; assay type: cell-based
From the text: It became clear from this that VHL (157–171) has an activity of inducing neuronal differentiation.

[1] = system: neural stem cells derived from the adult rat hippocampus; test: VHL oligopeptide introduced in vitro into neural stem cells using BioPORTER Reagent; assay type: cell-based; conditions: for morphological change compared with control group: 8 hours after introduction
Procedure: The oligopeptide prepared according to the above-described method was introduced in vitro into neural stem cells derived from the adult rat hippocampus at a concentration of 10–1000 ng/ml using BioPORTER Reagent (BioPORTER protein delivery reagent: Gene Therapy Systems, Inc., San Diego, Calif., U.S.A.). […] When this was immunofluorescence stained at a concentration of 100 ng/mL 24 hours after introduction, it was confirmed that 72% of them was differentiated into neurons, and 12% was differentiated into neuroglia cells (FIG. 4). Thereby, it was clarified that VHL could induce neuronal differentiation even by the method of peptide introduction not by introduction of gene.

Parkinson's model rat [2] = test: Apomorphine induced rotation after grafting of VHL peptide-introduced neural stem cells; assay type: in vivo; conditions: after two months; 10^5 peptide-introduced neural stem cells grafted to striatum
Procedure: (§1) Next, it was studied whether the symptom could be improved by grafting of neural stem cells into which VHL (157–171) oligopeptide was introduced within the central nervous system of a nerve disease animal. Parkinson's model rat as a nerve disease animal was prepared by injection of microdose of 6-hydroxydopamine into brain of rat and depletion of unilateral dopamine producing cells. Two weeks later, apomorphine induced rotation was studied and rat rotating not less than 7 times per one minute was determined as Parkinson's disease model. 10^5 neural stem cells into which VHL (157–171) oligopeptide was introduced were grafted to striatum of cerebrum of rat. After grafting, apomorphine induced rotation was determined every week. […] As behavior analysis, paw reaching test (a test wherein an ability to eat pellets placed on stairs by extending one side injured leg is studied.) was conducted and […] (FIG. 6).

Parkinson's model rat [3] = test: Paw reaching test after grafting of VHL peptide-introduced neural stem cells; assay type: in vivo; conditions: peptide-introduced neural stem cells grafted to striatum
Procedure: as §1

[4] = system: Parkinson's disease model rat; test: Pathological and histological study of the brain after grafting; assay type: in vivo; conditions: peptide-introduced neural stem cells grafted to striatum
Procedure: as §1

skin stem cells = test: Induction of differentiation of skin stem cells by VHL protein (FIG. 1); assay type: cell-based; conditions: neurofilament positive neuron
From the text: FIG. 1 is a fluorescence photomicrograph showing induction of differentiation of skin stem cell into neurofilament positive neuron.
A VHL gene, which is the causative gene of von Hippel-Lindau disease, a hereditary disease causing brain tumor (hemangioblastoma) or renal cancer, is a kind of a tumor suppressor gene. This gene was isolated from human chromosome 3 by Dr. Zbar et al.'s group (U.S.A.) in 1993. It has been reported that the VHL gene and the protein are expressed in neurons. However, the function of this gene in the nervous system was unknown. We considered that the gene may be involved in the formation of the nervous system at fetal developmental stages and studied differentiation over time of neural stem cells isolated from a rat fetal brain. […] As a result, when VHL gene is introduced to express VHL protein, neural stem cells are differentiated into neurons. Thus, it was clarified that VHL protein has a function to induce differentiation of nerves.

[5] = 100 ng/mL, 24 hours after introduction, BioPORTER Reagent

Substance: Ac-TLKERCLQVVRSLVKKKWKMRRNQFWVKVQRGK-NH2 [VHL (157–171)-ANT]
- cytotoxicity (neural stem cells): does not show cytotoxicity

Substance: TLKERCLQVVRSLVK [VHL (157–171) oligopeptide]
- cells differentiated into neuroglia cells (immunofluorescence staining) [1, 5]: 12%
- cells differentiated into neurons (immunofluorescence staining) [1, 5]: 72%
- morphological change compared with control group ([1]; BioPORTER Reagent): more marked as compared with the control group
- morphological change compared with control group ([1]; BioPORTER Reagent, listed as VHL peptide): marked as compared with control group
- concentration at which neural stem cells showed inclination to differentiate to neuron morphologically, elongation of neural spine observed ([1]; after 4 hours, introduced at 10–1000 ng/ml using BioPORTER Reagent): not less than 10 ng/ml
- rats showing zero of apomorphine induced rotation (Parkinson's model rat [2]): about 30%
- behavior analysis (paw reaching test, apomorphine induced rotation) compared with control group (Parkinson's model rat [3]): significant improvement
- grafted cells taken within the brain [4]: about 70%
- type of the grafted cells taken within the brain [4]: most of them were neurofilament positive neurons
- type of the grafted cells taken within the brain ([4]; listed as VHL gene): most of them are neuronal filaments

Substance: VHL protein: von Hippel-Lindau protein consisting of 213 full length amino acids
- differentiation of skin stem cells into neurons (skin stem cells): induces differentiation of skin stem cells into neurons
